US5486512A, “Quinazoline derivatives as acetylcholinesterase inhibitors” (priority 1994, dated 1996)
pIC50: −log10 of the molar value. Where two headings read alike, the source gives them in different places.

What was measured:
Type in all cases: biochemical
[1] = target: T1, Human Red Blood Cell AChE (Homo sapiens, UniProt P22303); experiment: Inhibition of human red blood cell acetylcholinesterase in vitro (radiometric assay of Johnson and Russell, modified)
T1 construct: from tissue; host or cells: human red blood cells
Excerpt: (§1) The in vitro data was obtained according to the radiometric assay of C. D. Johnson and R. L. Russell described in Anal. Biochem., 64:229-238 (1975) and modified as described by M. R. Emmerling and H. M. Sobkowicz in Hearings Research, 32:137-146 (1988); the rat brain homogenate acetylcholinesterase inhibition data were obtained by the Ellman assay, described by G. L. Ellman, D. Courtney, V. Andres, and R. M. Feathersome, described in Biochem. Pharmacol. 7:88-95 (1961), and modified as described by M. J. Marks, D. M. Patinkin, L. D. Artman, J. B. Busch, and A. C. Collins in Pharmacol. Biochem. and Behav.15:271-279 (1981), which references are incorporated herein.

[2] = target: T2, Rat Brain Homogenate AChE (Rattus norvegicus, UniProt P37136); experiment: Inhibition of rat brain homogenate acetylcholinesterase (Ellman assay, modified); conditions: Table I
T2 construct: rat brain homogenate acetylcholinesterase; from tissue; host or cells: rat brain homogenate
Excerpt: as §1

[3] = target: Electric Eel AChE (Electrophorus electricus, UniProt O42275); experiment: Inhibition of electric eel acetylcholinesterase in vitro
Excerpt: as §1

[4] = Table I, read-out: Inhibition of Acetylcholinesterase, Human Red Blood Cell AChE
[5] = Table I, read-out: Inhibition of Acetylcholinesterase, Electric Eel AChE
[6] = Table III, electric eel AChE, read-out: IC50 Eel AChE
[7] = Table II, human red blood cell AChE, read-out: IC50 Human AChE

Chain of Electric Eel AChE (O42275 24-633): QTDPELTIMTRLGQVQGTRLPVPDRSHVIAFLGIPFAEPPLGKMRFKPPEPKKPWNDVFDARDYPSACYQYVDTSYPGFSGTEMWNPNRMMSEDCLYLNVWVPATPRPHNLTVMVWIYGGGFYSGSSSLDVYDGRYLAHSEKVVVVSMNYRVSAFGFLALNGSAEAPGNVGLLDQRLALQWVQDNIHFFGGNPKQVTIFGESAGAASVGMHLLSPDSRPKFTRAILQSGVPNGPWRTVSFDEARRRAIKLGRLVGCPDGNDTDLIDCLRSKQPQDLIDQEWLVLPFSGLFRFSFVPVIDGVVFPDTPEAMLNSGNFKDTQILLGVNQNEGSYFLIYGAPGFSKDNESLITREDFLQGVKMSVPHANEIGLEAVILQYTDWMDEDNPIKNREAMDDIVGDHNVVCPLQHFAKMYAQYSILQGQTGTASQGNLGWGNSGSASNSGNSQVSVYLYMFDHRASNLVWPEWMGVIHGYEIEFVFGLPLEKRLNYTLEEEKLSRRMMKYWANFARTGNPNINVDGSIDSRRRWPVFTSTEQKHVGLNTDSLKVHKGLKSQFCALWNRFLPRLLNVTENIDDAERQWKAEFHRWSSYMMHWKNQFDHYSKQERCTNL
T1 sequence (P22303 other isoform, or with tags, fused parts or gaps): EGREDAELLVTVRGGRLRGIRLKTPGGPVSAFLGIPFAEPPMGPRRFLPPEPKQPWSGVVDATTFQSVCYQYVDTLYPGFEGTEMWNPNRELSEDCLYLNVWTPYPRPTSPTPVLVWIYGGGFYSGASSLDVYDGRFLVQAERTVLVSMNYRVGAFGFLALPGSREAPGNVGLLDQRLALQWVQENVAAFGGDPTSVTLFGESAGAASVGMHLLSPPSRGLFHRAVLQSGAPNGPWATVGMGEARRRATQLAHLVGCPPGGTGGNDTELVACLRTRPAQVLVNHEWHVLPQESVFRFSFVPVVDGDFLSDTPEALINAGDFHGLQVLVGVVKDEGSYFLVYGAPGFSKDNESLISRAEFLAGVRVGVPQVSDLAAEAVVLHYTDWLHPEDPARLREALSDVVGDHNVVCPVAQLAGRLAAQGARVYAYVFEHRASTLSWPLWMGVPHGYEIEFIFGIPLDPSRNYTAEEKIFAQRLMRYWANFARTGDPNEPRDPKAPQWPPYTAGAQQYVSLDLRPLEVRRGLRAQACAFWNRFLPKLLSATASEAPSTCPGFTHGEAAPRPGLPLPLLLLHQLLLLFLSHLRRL
T2 sequence (P37136 32-614): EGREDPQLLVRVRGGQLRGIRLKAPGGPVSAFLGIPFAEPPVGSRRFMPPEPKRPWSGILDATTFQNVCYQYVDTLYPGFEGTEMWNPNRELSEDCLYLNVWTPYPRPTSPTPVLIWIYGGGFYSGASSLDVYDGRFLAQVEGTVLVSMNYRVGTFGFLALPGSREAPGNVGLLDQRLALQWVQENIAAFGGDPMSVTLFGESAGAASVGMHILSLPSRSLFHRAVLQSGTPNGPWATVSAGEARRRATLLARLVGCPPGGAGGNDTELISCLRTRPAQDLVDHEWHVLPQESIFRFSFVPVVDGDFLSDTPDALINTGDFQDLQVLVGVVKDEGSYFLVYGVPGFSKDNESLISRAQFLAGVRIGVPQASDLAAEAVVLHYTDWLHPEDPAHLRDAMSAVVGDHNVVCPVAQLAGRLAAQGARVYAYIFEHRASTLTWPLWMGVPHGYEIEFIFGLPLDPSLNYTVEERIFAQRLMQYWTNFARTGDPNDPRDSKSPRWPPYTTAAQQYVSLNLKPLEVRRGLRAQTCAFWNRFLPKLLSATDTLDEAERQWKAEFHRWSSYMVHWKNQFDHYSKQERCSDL

Clc1cc(Cl)c2c(c1)CN1CCCCCC1=N2 [2,4-DiCl, H2, 2,4-dichloro-6,7,8,9,10,12-hexahydroazepino[2,1-b]quinazoline]
pIC50 [1, 4]: 7.20
pIC50 [2]: 5.42
pIC50 [3, 5]: 6.60

N=c1c2ccccc2nc2n1CCCCC2
pIC50 [3, 6]: 5.70

Clc1cc(Cl)c2c(c1)N=C1CCC(c3ccccc3)(c3ccccc3)CN1C2
pIC50 [1, 7]: 7.20

O=c1c2ccc(Cl)cc2nc2n1CCCCC2 [3-Cl, O, 3-chloro-7,8,9,10-tetrahydroazepino[2,1-b]quinazolin-12(6H)-one]
pIC50 [3, 5]: 4.68

c1ccc2c(c1)CN1CCCC1=N2
pIC50 [3, 6]: 5.80

Clc1ccc2c(c1)N=C1CC3CCC(C3)N1C2 (racemic)
pIC50 [1, 7]: 6.04

c1ccc2c(c1)CN1CCCCCCCC1=N2
pIC50 [3, 6]: 5.40

Clc1ccc2c(c1Cl)CN1CCCCCC1=N2 [1,2-DiCl, H2, 1,2-dichloro-6,7,8,9,10,12-hexahydroazepino[2,1-b]quinazoline]
pIC50 [1, 4]: 5.50

Clc1cc(Cl)c2c(c1)N=C1C3CC4CC(C3)CC(C4)N1C2
pIC50 [1, 7]: 7.22

Cc1cc(Cl)c2c(c1)CN1CCCCCC1=N2 [2-CH3,4-Cl, H2, 4-chloro-2-methyl-6,7,8,9,10,12-hexahydroazepino[2,1-b]quinazoline]
pIC50 [1, 4]: 6.20

Clc1cc(Cl)c2c(c1)N=C1CCCCN1C2
pIC50 [1, 7]: 7.22

S=c1c2ccc(Cl)cc2nc2n1CCCCC2 [3-Cl, S, 3-Chloro-7,8,9,10-tetrahydroazepino[2,1-b]quinazolin-12(6H)-thione]
pIC50 [3, 5]: 4.80

Clc1cc(Cl)c2c(c1)N=C1C3CCCC(C3)N1C2 (stereo not drawn)
pIC50 [1, 7]: 6.00

C1=CC2=Nc3ccccc3CN2C=C1
pIC50 [3, 6]: 5.80

FC(F)(F)c1ccc2c(c1)N=C1CCCCCN1C2
pIC50 [3, 6]: 6.00

COc1ccc2c(c1)N=C1CCCCCN1C2 [3-OCH3, H2]
pIC50 [1, 4]: 5.55

c1ccc(C2(c3ccccc3)CCC3=Nc4ccccc4CN3C2)cc1
pIC50 [3, 6]: 6.43

N#Cc1ccc2c(c1)CN1CCCCCC1=N2 [2-CN, H2]
pIC50 [1, 4]: 5.17
pIC50 [3, 5]: 5.82

CC1(C)CC2=Nc3cc(Cl)cc(Cl)c3CN2CC(C)(C)C1
pIC50 [1, 7]: 5.70

Cc1c(Cl)cc2c(c1Cl)CN1CCCCCC1=N2 [1,3-DiCl, 2-Me, H2, 1,3-dichloro-2-methyl-6,7,8,9,10,12-hexahydroazepino[2,1-b]quinazoline]
pIC50 [1, 4]: 6.00

Clc1ccc2c(c1)CN1CCCCCC1=N2 [2-Cl, H2, 2-chloro-6,7,8,9,10,12-hexahydroazepino[2,1-b]quinazoline]
pIC50 [1, 4]: 6.30

c1ccc2c(c1)CN1CCCCCCC1=N2
pIC50 [3, 6]: 5.37

N=c1c2ccccc2nc2n1CCCC2
pIC50 [3, 6]: 6.00

Cc1c(Cl)ccc2c1CN1CCCCCC1=N2 [1-CH3,2-Cl, H2, 2-chloro-1-methyl-6,7,8,9,10,12-hexahydroazepino[2,1-b]quinazoline]
pIC50 [1, 4]: 5.40

Clc1ccc2c(c1Cl)N=C1CCCCCN1C2 [3,4-DiCl, H2, 3,4-dichloro-6,7,8,9,10,12-hexahydroazepino[2,1-b]quinazoline]
pIC50 [1, 4]: 5.82
pIC50 [2]: 4.62
pIC50 [3, 5]: 6.40

Fc1ccc2c(c1)CN1CCCCCC1=N2 [2-F, H2, 2-fluoro-6,7,8,9,10,12-hexahydroazepino[2,1-b]quinazoline]
pIC50 [1, 4]: 5.70

Clc1cccc2c1CN1CCCCCC1=N2 [1-Cl, H2, 1-chloro-6,7,8,9,10,12-hexahydroazepino[2,1-b]quinazoline]
pIC50 [1, 4]: 5.77

N=c1c2ccc(Cl)cc2nc2n1CCCCC2 [3-Cl, NH, 3-chloro-7,8,9,10-tetrahydroazepino[2,1-b]quinazolin-12(6H)-imine]
pIC50 [3, 5]: 6.30

Cc1ccc2c(c1)CN1CCCCCC1=N2 [2-CH3, H2, 2-methyl-6,7,8,9,10,12-hexahydroazepino[2,1-b]quinazoline]
pIC50 [1, 4]: 5.74

Clc1cc(Cl)c2c(c1)N=C1C3CCC(C3)N1C2 (stereo not drawn)
pIC50 [1, 7]: 7.30

c1ccc(C2CC3=Nc4ccccc4CN3C2)cc1 (stereo not drawn)
pIC50 [3, 6]: 5.51

O=c1c2c(Cl)cc(Cl)cc2nc2n1CCCCC2
pIC50 [1, 7]: 4.20

Clc1cc2c(cc1Cl)N=C1CCCCCN1C2 [2,3-DiCl, H2, 2,3-dichloro-6,7,8,9,10,12-hexahydroazepino[2,1-b]quinazoline]
pIC50 [1, 4]: 5.60
pIC50 [2]: 4.75
pIC50 [3, 5]: 6.40

Fc1cccc2c1N=C1CCCCCN1C2 [4-F, H2, 4-fluoro-6,7,8,9,10,12-hexahydroazepino[2,1-b]quinazoline]
pIC50 [1, 4]: 5.80
pIC50 [3, 5]: 5.82

Cc1cccc2c1N=C1CCCCCN1C2 [4-CH3, H2, 4-methyl-6,7,8,9,10,12-hexahydroazepino[2,1-b]quinazoline]
pIC50 [1, 4]: 5.22

Clc1cccc2c1N=C1CCCCCN1C2 [4-Cl, H2, 4-chloro-6,7,8,9,10,12-hexahydroazepino[2,1-b]quinazoline]
pIC50 [1, 4]: 5.82
pIC50 [3, 5]: 6.20

Clc1cc(Cl)c2c(c1)N=C1CCCCCN1C2 [1,3-DiCl, H2, 1,3-dichloro-6,7,8,9,10,12-hexahydroazepino[2,1-b]quinazoline]
pIC50 [1, 4]: 7.40
pIC50 [2]: 6.76
pIC50 [3, 5]: 6.80

c1ccc2c(c1)CN1CCCCCC1=N2 [H, H2]
pIC50 [1, 4]: 5.72
pIC50 [2]: 4.80
pIC50 [3, 5]: 6.21

Clc1ccc(Cl)c2c1CN1CCCCCC1=N2 [1,4-DiCl, H2, 1,4-dichloro-6,7,8,9,10,12-hexahydroazepino[2,1-b]quinazoline]
pIC50 [1, 4]: 6.20
pIC50 [2]: 4.78
pIC50 [3, 5]: 7.00

Fc1ccc2c(c1)N=C1CCCCCN1C2 [3-F, H2, 3-fluoro-6,7,8,9,10,12-hexahydroazepino[2,1-b]quinazoline]
pIC50 [1, 4]: 5.54
pIC50 [3, 5]: 6.22

Cc1ccc2c(c1)N=C1CCCCCN1C2 [3-CH3, H2, 3-methyl-6,7,8,9,10,12-hexahydroazepino[2,1-b]quinazoline]
pIC50 [1, 4]: 6.21

Clc1ccc2c(c1)N=C1CCCCCN1C2 [3-Cl, H2, 3-chloro-6,7,8,9,10,12-hexahydroazepino[2,1-b]quinazoline]
pIC50 [2]: 5.72
pIC50 [3, 5]: 6.70

Fc1cccc2c1CN1CCCCCC1=N2 [1-F, H2, 1-fluoro-6,7,8,9,10,12-hexahydroazepino[2,1-b]quinazoline]
pIC50 [1, 4]: 5.72

Clc1cc(Cl)c2c(c1)N=C1CCCN1C2
pIC50 [1, 7]: 6.70

COc1cc2c(cc1OC)N=C1CCCCCN1C2 [2,3-DiOCH3, H2, 2,3-dimethoxy-6,7,8,9,10,12-hexahydroazepino[2,1-b]quinazoline]
pIC50 [1, 4]: 5.05
pIC50 [3, 5]: 6.40

Cc1cc(C)c2c(c1)CN1CCCCCC1=N2 [2,4-DiCH3, H2, 2,4-dimethyl-6,7,8,9,10,12-hexahydroazepino[2,1-b]quinazoline]
pIC50 [1, 4]: 6.05

CCc1ccc2c(c1)CN1CCCCCC1=N2 [2-C2 H5, H2, 2-ethyl-6,7,8,9,10,12-hexahydroazepino[2,1-b]quinazoline]
pIC50 [1, 4]: 5.60
pIC50 [3, 5]: 6.00
